According to article PMC5564600 (Oncotarget, 2017):
Like-named read-outs stand apart in the source and are kept apart here.

Assays:
Assay in all cases: biochemical
Type in all cases: binding
[1] = molecular target: T1, panel of 442 kinases (Homo sapiens, UniProt P00519); conditions: for remaining activity at 1 µM: read-out: % of control at 1 µM; for remaining activity at 10 µM: read-out: % of control at 10 µM
T1 construct: purchased Ambit Biosciences (scanMAXX KINOMEscan)

[2] = molecular target: T2, panel of 442 kinases (Homo sapiens, UniProt O95819); conditions: kinase MAP4K4; for remaining activity at 1 µM: read-out: % of control at 1 µM
T2 construct: purchased Ambit Biosciences (scanMAXX KINOMEscan)

[3] = molecular target: T3, panel of 442 kinases (Homo sapiens, UniProt Q9H1R3); conditions: kinase MYLK2; for remaining activity at 1 µM: read-out: % of control at 1 µM
T3 construct: purchased Ambit Biosciences (scanMAXX KINOMEscan)
T3 sequence (Q9H1R3 whole entry): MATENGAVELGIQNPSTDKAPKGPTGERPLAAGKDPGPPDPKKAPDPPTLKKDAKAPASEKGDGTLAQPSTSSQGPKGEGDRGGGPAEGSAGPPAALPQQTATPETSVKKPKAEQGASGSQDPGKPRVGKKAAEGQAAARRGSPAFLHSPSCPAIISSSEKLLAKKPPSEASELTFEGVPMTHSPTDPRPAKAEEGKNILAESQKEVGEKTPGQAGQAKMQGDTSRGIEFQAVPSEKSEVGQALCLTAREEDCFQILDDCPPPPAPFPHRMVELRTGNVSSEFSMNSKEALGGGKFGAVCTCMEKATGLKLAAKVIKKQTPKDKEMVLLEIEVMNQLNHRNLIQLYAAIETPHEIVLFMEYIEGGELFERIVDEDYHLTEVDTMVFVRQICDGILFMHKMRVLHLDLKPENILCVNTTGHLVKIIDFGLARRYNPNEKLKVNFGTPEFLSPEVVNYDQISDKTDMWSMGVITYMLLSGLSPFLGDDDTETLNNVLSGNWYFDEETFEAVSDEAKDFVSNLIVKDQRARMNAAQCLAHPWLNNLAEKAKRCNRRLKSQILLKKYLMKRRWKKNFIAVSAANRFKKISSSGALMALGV

[4] = molecular target: T4, panel of 442 kinases (Homo sapiens, UniProt Q13546); conditions: kinase RIPK1; for remaining activity at 1 µM: read-out: RIPK1 (% of control at 1 µM)
T4 construct: purchased Ambit Biosciences (scanMAXX KINOMEscan)
T4 sequence (Q13546 1-671): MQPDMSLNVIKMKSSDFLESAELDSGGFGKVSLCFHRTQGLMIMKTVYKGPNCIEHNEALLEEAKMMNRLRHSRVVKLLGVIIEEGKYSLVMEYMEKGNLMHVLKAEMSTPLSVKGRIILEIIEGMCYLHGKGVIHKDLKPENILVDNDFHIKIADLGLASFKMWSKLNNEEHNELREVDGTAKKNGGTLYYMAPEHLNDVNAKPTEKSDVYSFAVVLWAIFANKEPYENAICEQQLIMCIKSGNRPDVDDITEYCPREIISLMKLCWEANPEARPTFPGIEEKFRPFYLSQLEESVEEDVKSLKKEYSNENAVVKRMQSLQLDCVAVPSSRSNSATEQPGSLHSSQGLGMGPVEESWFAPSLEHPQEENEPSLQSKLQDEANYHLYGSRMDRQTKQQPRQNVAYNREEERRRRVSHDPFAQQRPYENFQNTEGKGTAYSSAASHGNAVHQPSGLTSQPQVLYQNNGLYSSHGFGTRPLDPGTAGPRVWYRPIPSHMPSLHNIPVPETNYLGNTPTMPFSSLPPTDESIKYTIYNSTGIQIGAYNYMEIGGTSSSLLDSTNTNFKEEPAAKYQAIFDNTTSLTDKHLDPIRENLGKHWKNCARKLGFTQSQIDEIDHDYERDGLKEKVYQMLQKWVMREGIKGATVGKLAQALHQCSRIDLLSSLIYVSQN

[5] = molecular target: T5, panel of 442 kinases (Homo sapiens, UniProt Q8TDX7); conditions: kinase NEK7; for remaining activity at 1 µM: read-out: % of control at 1 µM
T5 construct: purchased Ambit Biosciences (scanMAXX KINOMEscan)
T5 sequence (Q8TDX7 whole entry): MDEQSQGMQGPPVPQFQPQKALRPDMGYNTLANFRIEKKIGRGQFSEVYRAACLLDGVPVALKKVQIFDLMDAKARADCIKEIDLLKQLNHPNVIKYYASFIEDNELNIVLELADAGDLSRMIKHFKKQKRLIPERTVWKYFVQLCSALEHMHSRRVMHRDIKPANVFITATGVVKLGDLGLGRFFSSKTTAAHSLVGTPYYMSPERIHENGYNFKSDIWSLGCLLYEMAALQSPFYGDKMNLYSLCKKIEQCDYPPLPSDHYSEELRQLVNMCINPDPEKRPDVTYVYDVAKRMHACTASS

[6] = molecular target: T6, panel of 442 kinases (Homo sapiens, UniProt P00519, Q252H); conditions: for remaining activity at 1 µM: read-out: % of control at 1 µM; for remaining activity at 10 µM: read-out: % of control at 10 µM
T6 construct: purchased Ambit Biosciences (scanMAXX KINOMEscan)

[7] = molecular target: T7, panel of 442 kinases (Homo sapiens, UniProt Q16539); conditions: kinase p38-alpha; for remaining activity at 1 µM: read-out: % of control at 1 µM
T7 construct: purchased Ambit Biosciences (scanMAXX KINOMEscan)
T7 sequence (Q16539 whole entry): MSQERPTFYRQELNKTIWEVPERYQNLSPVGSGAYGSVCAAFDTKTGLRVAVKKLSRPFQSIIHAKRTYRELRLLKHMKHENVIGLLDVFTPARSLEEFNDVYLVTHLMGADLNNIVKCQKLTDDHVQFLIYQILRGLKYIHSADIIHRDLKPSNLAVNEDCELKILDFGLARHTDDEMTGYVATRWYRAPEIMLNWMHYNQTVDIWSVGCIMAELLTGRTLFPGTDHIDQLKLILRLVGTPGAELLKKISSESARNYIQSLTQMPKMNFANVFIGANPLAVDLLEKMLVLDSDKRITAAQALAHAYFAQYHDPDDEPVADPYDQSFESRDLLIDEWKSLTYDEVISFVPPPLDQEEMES

[8] = molecular target: T8, panel of 442 kinases (Homo sapiens, UniProt Q9BQI3); conditions: EIF2AK1; for remaining activity at 1 µM: read-out: % of control at 1 µM
T8 construct: purchased Ambit Biosciences (scanMAXX KINOMEscan)
T8 sequence (Q9BQI3 whole entry): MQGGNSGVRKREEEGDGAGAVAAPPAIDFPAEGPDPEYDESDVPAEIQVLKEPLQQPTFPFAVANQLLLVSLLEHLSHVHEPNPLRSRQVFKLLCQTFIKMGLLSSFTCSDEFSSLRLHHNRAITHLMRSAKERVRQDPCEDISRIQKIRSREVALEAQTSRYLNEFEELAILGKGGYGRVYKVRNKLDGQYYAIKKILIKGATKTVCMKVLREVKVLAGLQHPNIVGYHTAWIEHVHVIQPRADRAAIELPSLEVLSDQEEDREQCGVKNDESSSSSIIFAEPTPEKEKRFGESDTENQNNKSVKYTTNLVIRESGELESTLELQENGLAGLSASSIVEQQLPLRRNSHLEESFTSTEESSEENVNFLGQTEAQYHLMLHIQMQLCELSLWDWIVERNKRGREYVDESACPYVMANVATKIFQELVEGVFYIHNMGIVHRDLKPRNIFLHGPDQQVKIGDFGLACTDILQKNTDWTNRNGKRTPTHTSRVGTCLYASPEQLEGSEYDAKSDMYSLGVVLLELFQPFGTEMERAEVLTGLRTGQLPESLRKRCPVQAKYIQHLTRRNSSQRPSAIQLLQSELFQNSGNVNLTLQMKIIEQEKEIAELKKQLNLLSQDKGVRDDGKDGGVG

[9] = molecular target: T9, panel of 442 kinases (Homo sapiens, UniProt Q9HBH9); conditions: kinase MKNK2; for remaining activity at 1 µM: read-out: % of control at 1 µM
T9 construct: purchased Ambit Biosciences (scanMAXX KINOMEscan)

[10] = molecular target: T10, panel of 442 kinases (Homo sapiens, UniProt O94806); conditions: kinase PRKD3; for remaining activity at 1 µM: read-out: PRKD3 (% of control at 1 µM)
T10 construct: purchased Ambit Biosciences (scanMAXX KINOMEscan)
T10 sequence (O94806 1-890): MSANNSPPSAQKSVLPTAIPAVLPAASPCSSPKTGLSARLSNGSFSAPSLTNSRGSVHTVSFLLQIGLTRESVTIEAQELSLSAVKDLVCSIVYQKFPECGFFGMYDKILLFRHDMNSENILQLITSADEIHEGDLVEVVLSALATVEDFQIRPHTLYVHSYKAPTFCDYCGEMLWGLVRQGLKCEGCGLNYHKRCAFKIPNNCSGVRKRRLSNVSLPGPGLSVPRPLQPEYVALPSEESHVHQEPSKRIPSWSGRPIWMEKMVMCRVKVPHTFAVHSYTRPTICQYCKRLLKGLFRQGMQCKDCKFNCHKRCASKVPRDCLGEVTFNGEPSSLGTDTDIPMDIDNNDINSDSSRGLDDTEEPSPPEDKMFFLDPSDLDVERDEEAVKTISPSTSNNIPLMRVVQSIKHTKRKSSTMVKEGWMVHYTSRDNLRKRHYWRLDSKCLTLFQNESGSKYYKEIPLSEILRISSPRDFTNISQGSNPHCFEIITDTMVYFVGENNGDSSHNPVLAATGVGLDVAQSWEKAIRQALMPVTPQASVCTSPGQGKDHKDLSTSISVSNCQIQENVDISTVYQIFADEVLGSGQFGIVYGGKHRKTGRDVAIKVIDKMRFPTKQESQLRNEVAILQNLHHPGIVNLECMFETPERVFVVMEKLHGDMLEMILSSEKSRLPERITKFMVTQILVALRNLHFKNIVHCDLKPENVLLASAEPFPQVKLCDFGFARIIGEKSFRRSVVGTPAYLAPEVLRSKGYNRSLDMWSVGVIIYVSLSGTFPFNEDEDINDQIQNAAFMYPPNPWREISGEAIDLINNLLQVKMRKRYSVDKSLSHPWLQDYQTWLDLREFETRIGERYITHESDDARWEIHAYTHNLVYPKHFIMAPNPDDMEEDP

[11] = molecular target: T11, panel of 442 kinases (Homo sapiens, UniProt P08581); conditions: kinase MET; for remaining activity at 1 µM: read-out: % of control at 1 µM
T11 construct: purchased Ambit Biosciences (scanMAXX KINOMEscan)
T11 sequence (P08581 25-1390): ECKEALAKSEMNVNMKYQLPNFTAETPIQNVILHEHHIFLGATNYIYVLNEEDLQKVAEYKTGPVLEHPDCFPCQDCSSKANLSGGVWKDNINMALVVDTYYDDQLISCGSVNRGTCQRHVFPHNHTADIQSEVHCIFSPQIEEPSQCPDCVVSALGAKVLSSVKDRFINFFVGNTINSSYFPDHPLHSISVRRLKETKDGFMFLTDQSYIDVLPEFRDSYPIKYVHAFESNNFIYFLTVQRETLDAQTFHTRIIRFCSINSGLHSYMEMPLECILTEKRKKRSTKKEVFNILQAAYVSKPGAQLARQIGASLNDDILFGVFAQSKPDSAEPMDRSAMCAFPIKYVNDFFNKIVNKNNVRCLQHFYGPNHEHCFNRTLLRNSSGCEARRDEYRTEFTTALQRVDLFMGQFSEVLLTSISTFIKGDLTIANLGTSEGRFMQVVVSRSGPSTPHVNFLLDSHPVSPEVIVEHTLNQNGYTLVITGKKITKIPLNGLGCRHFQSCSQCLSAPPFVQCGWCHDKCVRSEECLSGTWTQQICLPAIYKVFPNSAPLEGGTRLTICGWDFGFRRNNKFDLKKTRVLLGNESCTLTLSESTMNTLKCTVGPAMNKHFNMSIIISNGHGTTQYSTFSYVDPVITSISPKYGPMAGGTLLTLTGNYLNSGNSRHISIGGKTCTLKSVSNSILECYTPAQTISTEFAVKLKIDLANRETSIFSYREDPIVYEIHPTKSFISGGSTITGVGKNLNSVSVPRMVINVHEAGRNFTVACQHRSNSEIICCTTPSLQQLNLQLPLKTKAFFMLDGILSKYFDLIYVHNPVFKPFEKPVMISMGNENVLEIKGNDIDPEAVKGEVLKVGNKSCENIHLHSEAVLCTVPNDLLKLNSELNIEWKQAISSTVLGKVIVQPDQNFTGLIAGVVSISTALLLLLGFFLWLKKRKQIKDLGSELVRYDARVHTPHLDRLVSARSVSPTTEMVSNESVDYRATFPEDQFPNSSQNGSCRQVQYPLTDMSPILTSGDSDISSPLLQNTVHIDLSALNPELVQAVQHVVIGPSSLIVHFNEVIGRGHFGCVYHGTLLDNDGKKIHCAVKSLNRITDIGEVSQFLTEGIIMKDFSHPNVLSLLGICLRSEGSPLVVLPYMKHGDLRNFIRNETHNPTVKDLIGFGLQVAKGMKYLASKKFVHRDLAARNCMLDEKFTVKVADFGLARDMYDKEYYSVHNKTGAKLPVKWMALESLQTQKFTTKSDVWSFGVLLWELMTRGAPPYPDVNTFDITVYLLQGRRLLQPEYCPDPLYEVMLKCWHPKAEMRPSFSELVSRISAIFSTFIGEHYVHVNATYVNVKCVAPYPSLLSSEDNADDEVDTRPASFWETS

[12] = molecular target: T12, panel of 442 kinases (Homo sapiens, UniProt Q13177); conditions: kinase PAK2; for remaining activity at 1 µM: read-out: % of control at 1 µM
T12 construct: purchased Ambit Biosciences (scanMAXX KINOMEscan)
T12 sequence (Q13177 whole entry): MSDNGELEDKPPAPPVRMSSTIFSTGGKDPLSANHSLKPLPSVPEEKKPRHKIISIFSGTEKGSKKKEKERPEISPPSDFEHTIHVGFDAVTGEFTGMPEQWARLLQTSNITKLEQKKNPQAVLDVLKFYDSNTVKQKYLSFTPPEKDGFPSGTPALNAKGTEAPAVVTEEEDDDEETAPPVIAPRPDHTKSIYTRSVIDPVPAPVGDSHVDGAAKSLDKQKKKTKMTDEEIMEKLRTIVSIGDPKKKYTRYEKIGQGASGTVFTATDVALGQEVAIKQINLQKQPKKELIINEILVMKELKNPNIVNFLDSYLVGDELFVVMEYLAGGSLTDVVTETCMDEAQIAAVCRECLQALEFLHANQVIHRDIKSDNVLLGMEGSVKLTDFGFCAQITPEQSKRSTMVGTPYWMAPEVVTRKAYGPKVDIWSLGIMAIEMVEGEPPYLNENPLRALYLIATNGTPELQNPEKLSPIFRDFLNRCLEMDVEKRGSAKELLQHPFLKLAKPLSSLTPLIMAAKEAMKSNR

[13] = molecular target: T13, panel of 442 kinases (Homo sapiens, UniProt P10721, V559D/V654A); conditions: kinase KIT(V559D,V654A); for remaining activity at 1 µM: read-out: % of control at 1 µM
T13 construct: purchased Ambit Biosciences (scanMAXX KINOMEscan)
T13 sequence (P10721 26-976 V559D/V654A): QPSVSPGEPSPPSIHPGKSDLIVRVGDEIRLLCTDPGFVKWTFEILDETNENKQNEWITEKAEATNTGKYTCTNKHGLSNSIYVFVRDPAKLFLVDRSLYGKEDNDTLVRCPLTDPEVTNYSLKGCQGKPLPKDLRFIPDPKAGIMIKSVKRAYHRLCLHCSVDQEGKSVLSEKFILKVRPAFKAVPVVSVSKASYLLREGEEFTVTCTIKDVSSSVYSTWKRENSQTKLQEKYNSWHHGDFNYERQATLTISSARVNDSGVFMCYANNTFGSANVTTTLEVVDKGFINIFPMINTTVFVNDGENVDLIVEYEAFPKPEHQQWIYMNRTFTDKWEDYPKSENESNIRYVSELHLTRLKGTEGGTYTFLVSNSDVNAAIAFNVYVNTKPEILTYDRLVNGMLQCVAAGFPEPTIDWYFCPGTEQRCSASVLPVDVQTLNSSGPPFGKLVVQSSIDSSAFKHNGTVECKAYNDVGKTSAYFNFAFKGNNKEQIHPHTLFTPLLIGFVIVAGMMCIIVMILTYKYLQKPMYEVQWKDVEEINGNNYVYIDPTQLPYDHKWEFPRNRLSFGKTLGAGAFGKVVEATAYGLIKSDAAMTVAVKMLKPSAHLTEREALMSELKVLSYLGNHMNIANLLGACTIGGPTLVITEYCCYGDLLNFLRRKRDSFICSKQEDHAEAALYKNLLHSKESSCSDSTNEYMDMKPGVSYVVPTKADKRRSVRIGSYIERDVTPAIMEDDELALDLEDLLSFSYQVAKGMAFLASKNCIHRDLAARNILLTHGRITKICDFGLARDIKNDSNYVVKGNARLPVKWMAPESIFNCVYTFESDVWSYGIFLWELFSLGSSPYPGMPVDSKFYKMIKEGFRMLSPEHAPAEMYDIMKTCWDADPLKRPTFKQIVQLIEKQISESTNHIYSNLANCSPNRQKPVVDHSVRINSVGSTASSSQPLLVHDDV

[14] = 10 µM, read-out: % of control at 10 µM

Compound | remaining activity at 1 µM ([1]; ABL1-nonphosphorylated) | remaining activity at 1 µM ([1]; ABL1-phosphorylated) | remaining activity at 1 µM [2] | remaining activity at 1 µM [3] | remaining activity at 1 µM [4] | remaining activity at 1 µM [5] | remaining activity at 1 µM ([6]; ABL1(Q252H)-nonphosphorylated) | remaining activity at 1 µM ([6]; ABL1(Q252H)-phosphorylated) | remaining activity at 1 µM [7] | remaining activity at 1 µM [8] | remaining activity at 1 µM [9] | remaining activity at 1 µM [10] | remaining activity at 1 µM [11] | remaining activity at 1 µM [12] | remaining activity at 1 µM [13] | further results
Nc1cc(C(F)(F)F)c(-c2cc(N3CCOCC3)nc(N3CCOCC3)n2)cn1 [Buparlisib] | 100% | 86% | 100% | 100% | 100% | 100% | 100% | 72% | 87% | 92% | 90% | 94% | 100% | 68% | 100% | remaining activity at 10 µM ([1]; ABL1-nonphosphorylated): 100%; remaining activity at 10 µM ([1]; ABL1-phosphorylated): 100%; remaining activity at 10 µM [2, 14]: 100%; remaining activity at 10 µM [3, 14]: 100%; remaining activity at 10 µM ([4]; 10 µM, read-out: RIPK1 (% of control at 10 µM)): 100%; remaining activity at 10 µM [5, 14]: 94%; remaining activity at 10 µM ([6]; ABL1(Q252H)-nonphosphorylated): 100%; remaining activity at 10 µM ([6]; ABL1(Q252H)-phosphorylated): 100%; remaining activity at 10 µM [7, 14]: 100%; remaining activity at 10 µM [8, 14]: 100%; remaining activity at 10 µM [9, 14]: 80%; remaining activity at 10 µM ([10]; 10 µM, read-out: PRKD3 (% of control at 10 µM)): 100%; remaining activity at 10 µM [11, 14]: 100%; remaining activity at 10 µM [12, 14]: 83%; remaining activity at 10 µM [13, 14]: 98%
COc1ncc(-c2ccc3nccc(-c4ccnnc4)c3c2)cc1NS(=O)(=O)c1ccc(F)cc1F [Omipalisib] | 100% | 98% | 100% | 100% | 78% | 100% | 100% | 100% | 97% | 100% | 98% | 100% | 99% | 57% | 100% | –
FC(F)c1nc2ccccc2n1-c1nc(N2CCOCC2)nc(N2CCOCC2)n1 [ZSTK474, 2-(difluoromethyl)-1-[4,6-di(4-morpholinyl)-1,3,5-triazin-2-yl]-1H-benzimidazole] | 100% | 100% | 93% | 95% | 98% | 68% | 100% | 100% | 100% | 77% | 100% | 100% | 100% | 100% | 95% | –
Cn1c(=O)n(-c2ccc(C(C)(C)C#N)cc2)c2c3cc(-c4cnc5ccccc5c4)ccc3ncc21 [Dactolisib, 2-methyl-2-[4-(3-methyl-2-oxo-8-quinolin-3-yl-2,3-dihydroimidazo[4,5-c]quinolin-1-yl)-phenyl] propionitrile] | 100% | 81% | 73% | 93% | 91% | 90% | 57% | 59% | 87% | 94% | 100% | 100% | – | – | 84% | –
